Target: T1, Organic cation/carnitine transporter 2 (Homo sapiens, UniProt O76082)
T1 sequence (O76082 whole entry): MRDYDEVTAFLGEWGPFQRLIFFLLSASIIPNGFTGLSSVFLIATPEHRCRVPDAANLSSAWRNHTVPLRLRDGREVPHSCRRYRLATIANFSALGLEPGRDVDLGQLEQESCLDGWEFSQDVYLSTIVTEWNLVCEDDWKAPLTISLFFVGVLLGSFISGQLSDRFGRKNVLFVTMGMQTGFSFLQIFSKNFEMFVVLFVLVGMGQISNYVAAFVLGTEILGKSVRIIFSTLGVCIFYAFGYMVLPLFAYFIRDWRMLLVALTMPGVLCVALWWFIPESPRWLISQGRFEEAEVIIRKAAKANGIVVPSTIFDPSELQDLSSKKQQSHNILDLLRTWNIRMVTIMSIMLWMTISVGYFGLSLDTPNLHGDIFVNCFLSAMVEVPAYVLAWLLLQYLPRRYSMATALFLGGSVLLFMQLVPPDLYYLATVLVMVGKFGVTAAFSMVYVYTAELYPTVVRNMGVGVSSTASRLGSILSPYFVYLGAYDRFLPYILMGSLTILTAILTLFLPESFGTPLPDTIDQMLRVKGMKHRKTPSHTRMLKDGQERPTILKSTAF
Test: Inhibition of OCTN2-mediated [14C]carnitine uptake in human OCTN2 expressing HEK293/PDZK1 cells by scintillation counting; call rule not given here
Type: cell-based

inhibition (INH): Active
SMILES: C[N+](C)(C)CC(O)CC(=O)[O-] (stereo unspecified) [CARNITINE]

— ChEMBL document CHEMBL3526078, “Pharmacokinetics and hepatic uptake of eltrombopag, a novel platelet-increasing agent” (Drug Metab Dispos, 2011)
